Assays:
Test in all cases: relative viability (nuclei count vs DMSO), 5 days (fraction); higher = more cells survive
[1] = compound: C1=CC=C(C(=C1)C2=CC=C(C=C2)C3=CSC4=C3C(=C(C(=O)N4)C#N)O)O + N=C(N)NC(=N)NCCc1ccccc1 [Phenformin] (partner 250 µM)
Method in brief: (§1)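 A single step with final 0.05% Triton X-100, 1% formaldehyde and 1 ug/ml Hoechst fixed the cells and stained nuclei 5 days after treatment. Lung cancer cell lines in 1536-well plates had been treated by pin tool the day after seeding with one drug alone or a fixed anchor-drug dose plus five library-drug doses (not always all listed) in √10 steps, and nuclei were counted on 4× images. Relative viability is the ratio of nuclei in treated wells to nuclei in vehicle wells, taken as the median of duplicate plates.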

Ricolinostat + Alpelisib = compound: O=C(CCCCCCNC(=O)c1cnc(N(c2ccccc2)c2ccccc2)nc1)NO [Ricolinostat] + Cc1nc(NC(=O)N2CCC[C@H]2C(N)=O)sc1-c1ccnc(C(C)(C)C(F)(F)F)c1 [Alpelisib] (partner 2 µM)
Method in brief: as §1

[2] = compound: C1=CC=C(C(=C1)C2=CC=C(C=C2)C3=CSC4=C3C(=C(C(=O)N4)C#N)O)O + Cc1nc(Nc2ncc(C(=O)Nc3c(C)cccc3Cl)s2)cc(N2CCN(CCO)CC2)n1 [Dasatinib] (partner 0.075 µM)
Method in brief: as §1

Ricolinostat + Olaparib = compound: O=C(CCCCCCNC(=O)c1cnc(N(c2ccccc2)c2ccccc2)nc1)NO [Ricolinostat] + O=C(c1cc(Cc2n[nH]c(=O)c3ccccc23)ccc1F)N1CCN(C(=O)C2CC2)CC1 [Olaparib] (partner 8 µM)
Method in brief: as §1

[3] = compound: C1=CC=C(C(=C1)C2=CC=C(C=C2)C3=CSC4=C3C(=C(C(=O)N4)C#N)O)O + Nc1ncn([C@H]2C[C@H](O)[C@@H](CO)O2)c(=O)n1 [Decitabine] (partner 2 µM)
Method in brief: as §1

Cell Line: NCI-H1792
- relative viability ([1]; first compound 0.08 µM): 0.113
- relative viability ([1]; first compound 0.253 µM): 0.283
- relative viability ([1]; first compound 0.8 µM): 0.287
- relative viability ([1]; first compound 2.53 µM): 0.36
- relative viability ([1]; first compound 8 µM): 0.268
- relative viability (Ricolinostat + Alpelisib; first compound 0.08 µM): 0.55
- relative viability (Ricolinostat + Alpelisib; first compound 0.253 µM): 0.661
- relative viability (Ricolinostat + Alpelisib; first compound 0.8 µM): 0.67
- relative viability (Ricolinostat + Alpelisib; first compound 2.53 µM): 0.59
- relative viability ([2]; first compound 0.253 µM): 0.803
- relative viability ([2]; first compound 2.53 µM): 0.722
- relative viability ([2]; first compound 8 µM): 0.508
- relative viability (Ricolinostat + Olaparib; first compound 0.253 µM): 0.391
- relative viability (Ricolinostat + Olaparib; first compound 0.8 µM): 0.284
- relative viability (Ricolinostat + Olaparib; first compound 2.53 µM): 0.041
- relative viability ([3]; first compound 0.253 µM): 0.715
- relative viability ([3]; first compound 0.8 µM): 0.482
- relative viability ([3]; first compound 2.53 µM): 0.617
- relative viability ([3]; first compound 8 µM): 0.438

Reference: the supplement of paper PMC10307832
